Measured values as given in patent publication US10392368B2, “Pyrazolo and triazolo bicyclic compounds as JAK kinase inhibitors” (THERAVANCE BIOPHARMA R&D IP, LLC, priority 2017, dated 2019).

Tests used:
[1] = system: IL-2 stimulated pSTAT5 in Tall-1 T cells; assay: Cellular JAK3 potency assay: inhibition of IL-2 stimulated pSTAT5 in Tall-1 T cells; type: cell-based, human; settings: for Tall-1 (pIC50): IL-2 stimulated pSTAT5, Tall-1 T cells
Method in brief: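 Tall-1 human T cells (45,000/well) in phenol red-free DMEM with 10% FBS were preincubated with compound 1 h at 37 °C, then stimulated with IL-2 (final 300 ng/ml) for 30 min. Lysate pSTAT5 read by AlphaLisa; IC50 from inhibition curves, reported as pIC50 (mean±SD).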

[2] = molecular target: T1, JAK3 (Homo sapiens, UniProt P52333); assay: Biochemical JAK3 kinase assay (LanthaScreen); design: GST; purchased Life Technologies; settings: for JAK3 (pKi)-JAK1 (pKi): selectivity JAK3 over JAK1, difference of pKi
T1 sequence (P52333 1-1124): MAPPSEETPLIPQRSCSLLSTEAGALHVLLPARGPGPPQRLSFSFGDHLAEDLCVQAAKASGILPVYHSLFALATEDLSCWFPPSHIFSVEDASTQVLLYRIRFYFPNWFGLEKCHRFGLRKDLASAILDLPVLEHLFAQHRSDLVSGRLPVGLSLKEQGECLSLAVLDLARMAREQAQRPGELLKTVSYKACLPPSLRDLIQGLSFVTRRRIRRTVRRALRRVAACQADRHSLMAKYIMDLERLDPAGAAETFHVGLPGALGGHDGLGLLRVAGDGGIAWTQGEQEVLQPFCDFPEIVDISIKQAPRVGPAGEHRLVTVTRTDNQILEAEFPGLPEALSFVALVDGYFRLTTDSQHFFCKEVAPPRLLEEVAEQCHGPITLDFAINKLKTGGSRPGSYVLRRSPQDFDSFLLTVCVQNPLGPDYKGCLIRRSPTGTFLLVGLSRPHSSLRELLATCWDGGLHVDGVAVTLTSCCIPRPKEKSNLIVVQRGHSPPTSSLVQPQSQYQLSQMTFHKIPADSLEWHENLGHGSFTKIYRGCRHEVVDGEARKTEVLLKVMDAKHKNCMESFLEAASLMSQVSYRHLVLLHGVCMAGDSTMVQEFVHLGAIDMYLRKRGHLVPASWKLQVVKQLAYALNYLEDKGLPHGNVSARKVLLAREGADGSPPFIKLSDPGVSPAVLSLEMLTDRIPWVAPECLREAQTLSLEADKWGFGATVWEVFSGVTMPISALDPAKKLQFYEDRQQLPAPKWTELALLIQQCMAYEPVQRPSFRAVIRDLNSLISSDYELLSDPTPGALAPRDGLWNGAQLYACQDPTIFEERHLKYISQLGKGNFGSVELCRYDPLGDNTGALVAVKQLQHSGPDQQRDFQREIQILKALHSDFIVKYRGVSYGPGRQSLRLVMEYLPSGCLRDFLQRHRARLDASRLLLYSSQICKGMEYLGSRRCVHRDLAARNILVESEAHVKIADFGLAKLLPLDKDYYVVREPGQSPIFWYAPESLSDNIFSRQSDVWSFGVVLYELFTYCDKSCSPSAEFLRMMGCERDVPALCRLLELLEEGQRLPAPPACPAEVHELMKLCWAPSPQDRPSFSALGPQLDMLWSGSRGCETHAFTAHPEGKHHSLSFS
Method in brief: (§1)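 TR-FRET read-out: terbium anti-pSTAT1 (pTyr701) antibody, 2 nM, with 10 mM EDTA quench, emission ratio 520/495 nm. GST-JAK phosphorylates GFP-STAT1 peptide for 1 h at ambient temperature after 1 h compound pre-incubation. pIC50 from dose-response converted to pKi by Cheng-Prusoff.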

[3] = molecular target: T2, JAK1 (Homo sapiens, UniProt P23458); assay: Biochemical JAK1 kinase assay (LanthaScreen)
T2 construct: GST; purchased Life Technologies
T2 sequence (P23458 whole entry): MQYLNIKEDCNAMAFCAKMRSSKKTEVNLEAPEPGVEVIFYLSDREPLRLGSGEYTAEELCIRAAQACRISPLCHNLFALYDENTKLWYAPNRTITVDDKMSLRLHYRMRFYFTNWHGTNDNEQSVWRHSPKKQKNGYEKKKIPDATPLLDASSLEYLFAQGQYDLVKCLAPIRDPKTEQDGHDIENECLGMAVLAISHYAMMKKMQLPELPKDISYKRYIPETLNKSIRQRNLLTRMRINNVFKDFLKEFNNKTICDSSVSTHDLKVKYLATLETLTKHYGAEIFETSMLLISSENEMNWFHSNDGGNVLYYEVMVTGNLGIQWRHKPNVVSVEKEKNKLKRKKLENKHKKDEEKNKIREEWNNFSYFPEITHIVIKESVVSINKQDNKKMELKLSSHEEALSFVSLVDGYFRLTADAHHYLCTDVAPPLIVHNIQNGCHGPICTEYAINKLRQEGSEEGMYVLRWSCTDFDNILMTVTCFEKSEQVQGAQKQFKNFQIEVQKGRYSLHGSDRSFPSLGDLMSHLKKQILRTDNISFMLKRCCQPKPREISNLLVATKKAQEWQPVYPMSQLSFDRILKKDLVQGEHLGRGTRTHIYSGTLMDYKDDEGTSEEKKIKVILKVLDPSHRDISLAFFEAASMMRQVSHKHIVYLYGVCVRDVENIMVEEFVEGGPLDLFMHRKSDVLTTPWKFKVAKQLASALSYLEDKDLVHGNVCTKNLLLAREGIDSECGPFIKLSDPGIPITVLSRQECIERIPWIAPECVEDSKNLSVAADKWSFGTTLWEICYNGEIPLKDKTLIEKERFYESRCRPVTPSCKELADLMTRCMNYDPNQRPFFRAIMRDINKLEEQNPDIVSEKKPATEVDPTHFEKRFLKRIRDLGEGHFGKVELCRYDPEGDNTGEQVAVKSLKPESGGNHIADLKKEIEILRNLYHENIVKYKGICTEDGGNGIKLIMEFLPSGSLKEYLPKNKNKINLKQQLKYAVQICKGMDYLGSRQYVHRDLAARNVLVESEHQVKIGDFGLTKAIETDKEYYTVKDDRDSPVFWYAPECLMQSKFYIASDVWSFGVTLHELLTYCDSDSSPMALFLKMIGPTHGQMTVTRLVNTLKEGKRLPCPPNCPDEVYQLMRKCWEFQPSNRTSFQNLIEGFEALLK
Method in brief: as §1

Row | SMILES | Tall-1 (pIC50) [1] | JAK 3 (pKi) [2] | JAK3 (pKi)-JAK1 (pKi) [2] | JAK 1 (pKi) [3] | IC50 ([1]; Homo sapiens, TALL-1, IL-2 stimulated pSTAT5, Tall-1 T cells, read-out: Tall-1 (pIC50) (converted)) [nM] | Ki ([2]; read-out: JAK 3 (pKi) (converted)) [nM] | Ki ([3]; read-out: JAK 1 (pKi) (converted)) [nM]
1 | CN(C)CC=CC(=O)N1CCCC(Oc2nc(-c3ccc(O)c(F)c3)cc3[nH]ncc23)C1 (stereo not shown) [Compound 8-9] | C (a pIC50 value between 6 and 6.7 (IC50 between 1 μM and 200 nM)) | B (a pKi value between 9 and 10 (Ki between 1 nM and 0.1 nM)) | B (a value of 2.3 to 3) | E (a pKi value of 7 or below (Ki of 100 nM or above)) |  |  | 
2 | C=CC(=O)N1CCC[C@H](Oc2nc(-c3ccc(O)c(Cl)c3)cc3[nH]ncc23)C1 [Compound 8-10] | A (a pIC50 value≥7.5 (IC50≤32 nM)) | A (a pKi value≥10 (Ki≤0.1 nM)) | A (a value of 3 or above) | D (a pKi value between 7 and 8 (Ki between 100 nM and 10 nM)) |  |  | 
3 | C=CC(=O)N1CCC[C@H](Oc2nc(-c3ccc(O)c(Cl)c3)nc3[nH]ncc23)C1 [Compound 8-12] | C (a pIC50 value between 6 and 6.7 (IC50 between 1 μM and 200 nM)) | B (a pKi value between 9 and 10 (Ki between 1 nM and 0.1 nM)) | A (a value of 3 or above) | E (a pKi value of 7 or below (Ki of 100 nM or above)) |  |  | 
4 | C=CC(=O)N1CCC[C@H](Oc2nc(-c3ccc(O)c(F)c3)nc3[nH]ncc23)C1 [Compound 8-13] | C (a pIC50 value between 6 and 6.7 (IC50 between 1 μM and 200 nM)) | B (a pKi value between 9 and 10 (Ki between 1 nM and 0.1 nM)) | A (a value of 3 or above) | E (a pKi value of 7 or below (Ki of 100 nM or above)) |  |  | 
5 | CN(C)CC=CC(=O)N1C2CCC1CC(Oc1cc(-c3ccc(O)c(Cl)c3)cc3[nH]ncc13)C2 (stereo not shown) [Compound 9-3] | C (a pIC50 value between 6 and 6.7 (IC50 between 1 μM and 200 nM)) | B (a pKi value between 9 and 10 (Ki between 1 nM and 0.1 nM)) | C (a value of 1.8 to 2.3) | E (a pKi value of 7 or below (Ki of 100 nM or above)) |  |  | 
6 | CN(C)CC=CC(=O)N1C2CCC1CC(Oc1cc(-c3ccc(O)c(F)c3)cc3[nH]ncc13)C2 (stereo not shown) [Compound 9-5] | C (a pIC50 value between 6 and 6.7 (IC50 between 1 μM and 200 nM)) | B (a pKi value between 9 and 10 (Ki between 1 nM and 0.1 nM)) | C (a value of 1.8 to 2.3) | D (a pKi value between 7 and 8 (Ki between 100 nM and 10 nM)) |  |  | 
7 | C=CC(=O)N1C2CCC1CC(Oc1nc(-c3ccc(O)cc3)cc3[nH]ncc13)C2 (stereo not shown) [Compound 9-6] | A (a pIC50 value≥7.5 (IC50≤32 nM)) | B (a pKi value between 9 and 10 (Ki between 1 nM and 0.1 nM)) | A (a value of 3 or above) | E (a pKi value of 7 or below (Ki of 100 nM or above)) |  |  | 
8 | C=CC(=O)N1C2CCC1CC(Oc1nc(-c3ccc(O)c(Cl)c3)cc3[nH]ncc13)C2 (stereo not shown) [Compound 9-7] | B (a pIC50 value between 6.7 (included) and 7.5 (IC50 between 200 nM and 32 nM)) | A (a pKi value≥10 (Ki≤0.1 nM)) | A (a value of 3 or above) | E (a pKi value of 7 or below (Ki of 100 nM or above)) |  |  | 
9 | CN(C)CC=CC(=O)N1C2CCC1CC(Oc1nc(-c3ccc(O)c(Cl)c3)cc3[nH]ncc13)C2 (stereo not shown) [Compound 9-8] | C (a pIC50 value between 6 and 6.7 (IC50 between 1 μM and 200 nM)) | B (a pKi value between 9 and 10 (Ki between 1 nM and 0.1 nM)) | C (a value of 1.8 to 2.3) | D (a pKi value between 7 and 8 (Ki between 100 nM and 10 nM)) |  |  | 
10 | C=CC(=O)N1C2CCC1CC(Oc1nc(-c3ccc(O)c(F)c3)cc3[nH]ncc13)C2 (stereo not shown) [Compound 9-10] | A (a pIC50 value≥7.5 (IC50≤32 nM)) | B (a pKi value between 9 and 10 (Ki between 1 nM and 0.1 nM)) | A (a value of 3 or above) | E (a pKi value of 7 or below (Ki of 100 nM or above)) |  |  | 
11 | C=CC(=O)N1C2CCC1CC(Oc1nc(-c3ccc(O)cc3)nc3[nH]ncc13)C2 (stereo not shown) [Compound 9-11] | B (a pIC50 value between 6.7 (included) and 7.5 (IC50 between 200 nM and 32 nM)) | A (a pKi value≥10 (Ki≤0.1 nM)) | A (a value of 3 or above) | E (a pKi value of 7 or below (Ki of 100 nM or above)) |  |  | 
12 | CN(C)CC=CC(=O)N1C2CCC1CC(Oc1cc(-c3ccc(O)cc3)cc3[nH]ncc13)C2 (stereo not shown) [Compound 10-1] | B (a pIC50 value between 6.7 (included) and 7.5 (IC50 between 200 nM and 32 nM)) | A (a pKi value≥10 (Ki≤0.1 nM)) | B (a value of 2.3 to 3) | D (a pKi value between 7 and 8 (Ki between 100 nM and 10 nM)) |  |  | 
13 | CN(C)CC=CC(=O)N1C2CCC1CC(Oc1cc(-c3ccc(O)c(Cl)c3)cc3[nH]ncc13)C2 (stereo not shown) [Compound 10-3] | B (a pIC50 value between 6.7 (included) and 7.5 (IC50 between 200 nM and 32 nM)) | B (a pKi value between 9 and 10 (Ki between 1 nM and 0.1 nM)) | B (a value of 2.3 to 3) | D (a pKi value between 7 and 8 (Ki between 100 nM and 10 nM)) |  |  | 
14 | CN(C)CC=CC(=O)N1C2CCC1CC(Oc1cc(-c3ccc(O)c(F)c3)cc3[nH]ncc13)C2 (stereo not shown) [Compound 10-5] | B (a pIC50 value between 6.7 (included) and 7.5 (IC50 between 200 nM and 32 nM)) | B (a pKi value between 9 and 10 (Ki between 1 nM and 0.1 nM)) | C (a value of 1.8 to 2.3) | D (a pKi value between 7 and 8 (Ki between 100 nM and 10 nM)) |  |  | 
15 | C=CC(=O)N1C2CCC1CC(Oc1cc(-c3ccc(O)c(F)c3)cc3[nH]ncc13)C2 (stereo not shown) [Compound 10-6] | A (a pIC50 value≥7.5 (IC50≤32 nM)) | B (a pKi value between 9 and 10 (Ki between 1 nM and 0.1 nM)) | B (a value of 2.3 to 3) | D (a pKi value between 7 and 8 (Ki between 100 nM and 10 nM)) |  |  | 
16 | C=CC(=O)N1CCO[C@H](C(=O)Nc2cc(-c3ccc(O)cc3)cc3[nH]ncc23)C1 [Compound 11-1] | A (a pIC50 value≥7.5 (IC50≤32 nM)) | B (a pKi value between 9 and 10 (Ki between 1 nM and 0.1 nM)) | A (a value of 3 or above) | E (a pKi value of 7 or below (Ki of 100 nM or above)) |  |  | 
17 | CN(C)C/C=C/C(=O)N1CCO[C@H](C(=O)Nc2cc(-c3ccc(O)cc3)cc3[nH]ncc23)C1 [Compound 11-2] | C (a pIC50 value between 6 and 6.7 (IC50 between 1 μM and 200 nM)) | B (a pKi value between 9 and 10 (Ki between 1 nM and 0.1 nM)) | A (a value of 3 or above) | E (a pKi value of 7 or below (Ki of 100 nM or above)) |  |  | 
18 | C=CC(=O)N1CC[C@@H](Sc2cc(-c3ccc(O)cc3)cc3[nH]ncc23)C1 [Compound 12-2] | B (a pIC50 value between 6.7 (included) and 7.5 (IC50 between 200 nM and 32 nM)) | B (a pKi value between 9 and 10 (Ki between 1 nM and 0.1 nM)) | B (a value of 2.3 to 3) | E (a pKi value of 7 or below (Ki of 100 nM or above)) |  |  | 
19 | CN(C)C/C=C/C(=O)N1CC[C@@H](Sc2cc(-c3ccc(O)cc3)cc3[nH]ncc23)C1 [Compound 12-3] |  |  | B (a value of 2.3 to 3) |  | 200 to 1000 | 0.1 to 1 | 10 to 100
